Test results taken from the supplement of paper PMC8671470.

Experiments:
Conditions in all cases: 72 h
[1] = system: SHI-1; assay: cell viability (% survival relative to DMSO control, bortezomib = 0%); higher = less cytotoxic
Method in brief: (§1)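 Reported values are percent survival from duplicate wells, averaged. Fifteen myeloid leukaemia cell lines were treated in 384-well plates with compounds at 1, 10, 100, 1000 or 10000 nM for 72 h at 37 °C in 5% CO2. Signals from CellTiter-Glo luminescence were scaled with vehicle as 100% and a 10 µM positive control as 0%.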

[2] = system: HEL; assay: as above
Method in brief: as §1

[3] = system: KU-812; assay: as above
Method in brief: as §1

[4] = system: KG-1; assay: as above
Method in brief: as §1

[5] = system: NOMO-1; assay: as above
Method in brief: as §1

[6] = system: KCL-22; assay: as above
Method in brief: as §1

[7] = system: LAMA-84; assay: as above
Method in brief: as §1

[8] = system: MV4-11; assay: as above
Method in brief: as §1

[9] = system: THP-1; assay: as above
Method in brief: as §1

[10] = system: BV-173; assay: as above
Method in brief: as §1

[11] = system: ML-2; assay: as above
Method in brief: as §1

[12] = system: Mono-Mac-6; assay: as above
Method in brief: as §1

[13] = system: MOLM-13; assay: as above
Method in brief: as §1

[14] = system: HL-60; assay: as above
Method in brief: as §1

[15] = system: SHI-1
Method in brief: (§2)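 Fifteen myeloid leukaemia lines in RPMI 1640 were treated for 72 h at 37 °C and 5% CO2 with five tenfold doses from 1 to 10,000 nM, in duplicate. ATP luminescence was normalised to vehicle and to a positive control at 10 µM, then fitted with a four-parameter log-logistic model. The IC50 came from these fits.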

[16] = system: HEL
Method in brief: as §2

[17] = system: K-562
Method in brief: as §2

[18] = system: KU-812
Method in brief: as §2

[19] = system: KG-1
Method in brief: as §2

[20] = system: NOMO-1
Method in brief: as §2

[21] = system: KCL-22
Method in brief: as §2

[22] = system: LAMA-84
Method in brief: as §2

[23] = system: MV4-11
Method in brief: as §2

[24] = system: THP-1
Method in brief: as §2

[25] = system: BV-173
Method in brief: as §2

[26] = system: ML-2
Method in brief: as §2

[27] = system: Mono-Mac-6
Method in brief: as §2

[28] = system: MOLM-13
Method in brief: as §2

[29] = system: HL-60
Method in brief: as §2

[30] = system: HL-60; assay: area under dose-response curve (viability, 1 nM-10 uM) (fraction (0-1)); higher = more sensitive
Method in brief: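 For each screen, HL-60 cells in RPMI 1640 with 10% FBS carried either DMSO or 100 nM of one of three metabolic inhibitors while the full library was applied at five tenfold concentrations, 1–10,000 nM, in duplicate. Plates were 384-well and were kept 72 h at 37 °C, 5% CO2. Viability, measured by CellTiter-Glo, was normalised to wells with DMSO and with 10 μM proteasome inhibitor. Where area under the curve appears, it was fitted by four-parameter log-logistic models in drc and PharmacoGx.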

[31] = co-treatment: GSK2194069 100 nM
[32] = co-treatment: pictilisib 100 nM

O=c1oc2c(O)c(O)cc3c(=O)oc4c(O)c(O)cc1c4c23 [Benzoaric Acid]
cell viability ([1]; 1 nM): 97.7% | cell viability ([1]; 10 nM): 106% | cell viability ([1]; 100 nM): 99.7% | cell viability ([1]; 1000 nM): 94.3% | cell viability ([1]; 10000 nM): 120% | cell viability ([2]; 1 nM): 113% | cell viability ([2]; 10 nM): 100% | cell viability ([2]; 100 nM): 107% | cell viability ([2]; 1000 nM): 92.3% | cell viability ([2]; 10000 nM): 114% | cell viability ([3]; 1 nM): 98.4% | cell viability ([3]; 10 nM): 97% | cell viability ([3]; 100 nM): 95.1% | cell viability ([3]; 1000 nM): 92.4% | cell viability ([3]; 10000 nM): 110% | cell viability ([4]; 1 nM): 103% | cell viability ([4]; 10 nM): 107% | cell viability ([4]; 100 nM): 96.6% | cell viability ([4]; 1000 nM): 90.4% | cell viability ([4]; 10000 nM): 120% | cell viability ([5]; 1 nM): 102% | cell viability ([5]; 10 nM): 104% | cell viability ([5]; 100 nM): 104% | cell viability ([5]; 1000 nM): 99.9% | cell viability ([5]; 10000 nM): 102% | cell viability ([6]; 1 nM): 100% | cell viability ([6]; 10 nM): 111% | cell viability ([6]; 100 nM): 99% | cell viability ([6]; 1000 nM): 97.8% | cell viability ([6]; 10000 nM): 124% | cell viability ([7]; 1 nM): 101% | cell viability ([7]; 10 nM): 95.9% | cell viability ([7]; 100 nM): 98.9% | cell viability ([7]; 1000 nM): 94.6% | cell viability ([7]; 10000 nM): 105% | cell viability ([8]; 1 nM): 107% | cell viability ([8]; 10 nM): 90.5% | cell viability ([8]; 100 nM): 98.8% | cell viability ([8]; 1000 nM): 94.2% | cell viability ([8]; 10000 nM): 97.2% | cell viability ([9]; 1 nM): 102% | cell viability ([9]; 10 nM): 97.3% | cell viability ([9]; 100 nM): 94.3% | cell viability ([9]; 1000 nM): 99.4% | cell viability ([9]; 10000 nM): 100% | cell viability ([10]; 1 nM): 92.9% | cell viability ([10]; 10 nM): 101% | cell viability ([10]; 100 nM): 92.8% | cell viability ([10]; 1000 nM): 97.9% | cell viability ([10]; 10000 nM): 99.1% | cell viability ([11]; 1 nM): 94.7% | cell viability ([11]; 10 nM): 101% | cell viability ([11]; 100 nM): 95.9% | cell viability ([11]; 1000 nM): 95.1% | cell viability ([11]; 10000 nM): 108% | cell viability ([12]; 1 nM): 108% | cell viability ([12]; 10 nM): 109% | cell viability ([12]; 100 nM): 103% | cell viability ([12]; 1000 nM): 92.5% | cell viability ([12]; 10000 nM): 118% | cell viability ([13]; 1 nM): 92.9% | cell viability ([13]; 10 nM): 99.6% | cell viability ([13]; 100 nM): 96% | cell viability ([13]; 1000 nM): 92.9% | cell viability ([13]; 10000 nM): 110% | cell viability ([14]; 1 nM): 94.6% | cell viability ([14]; 10 nM): 106% | cell viability ([14]; 100 nM): 90.7% | cell viability ([14]; 1000 nM): 92% | cell viability ([14]; 10000 nM): 102% | IC50 (cell viability) [15]: > 10 µM | IC50 (cell viability) [16]: > 10 µM | IC50 (cell viability) [17]: > 10 µM | IC50 (cell viability) [18]: > 10 µM | IC50 (cell viability) [19]: > 10 µM | IC50 (cell viability) [20]: > 10 µM | IC50 (cell viability) [21]: > 10 µM | IC50 (cell viability) [22]: > 10 µM | IC50 (cell viability) [23]: > 10 µM | IC50 (cell viability) [24]: > 10 µM | IC50 (cell viability) [25]: > 10 µM | IC50 (cell viability) [26]: > 10 µM | IC50 (cell viability) [27]: > 10 µM | IC50 (cell viability) [28]: > 10 µM | IC50 (cell viability) [29]: > 10 µM | area under dose-response curve ([30]; co-treatment: AZD3965 100 nM): < 0.0301 | area under dose-response curve ([30]; co-treatment: DMSO vehicle): < 0.0301 | area under dose-response curve [30, 31]: 0.0302 | area under dose-response curve [30, 32]: 0.0302

COc1ccc(-c2ccccc2)cc1NS(=O)(=O)c1cc(Cl)cc(Cl)c1O
cell viability ([1]; 1 nM): 95.9% | cell viability ([1]; 10 nM): 101% | cell viability ([1]; 100 nM): 105% | cell viability ([1]; 1000 nM): 82.2% | cell viability ([1]; 10000 nM): 113% | cell viability ([2]; 1 nM): 106% | cell viability ([2]; 10 nM): 87.4% | cell viability ([2]; 100 nM): 115% | cell viability ([2]; 1000 nM): 74% | cell viability ([2]; 10000 nM): 95.3% | cell viability ([3]; 1 nM): 98.2% | cell viability ([3]; 10 nM): 84.4% | cell viability ([3]; 100 nM): 105% | cell viability ([3]; 1000 nM): 95.6% | cell viability ([3]; 10000 nM): 104% | cell viability ([4]; 1 nM): 98.1% | cell viability ([4]; 10 nM): 96.4% | cell viability ([4]; 100 nM): 108% | cell viability ([4]; 1000 nM): 83.8% | cell viability ([4]; 10000 nM): 99.2% | cell viability ([5]; 1 nM): 102% | cell viability ([5]; 10 nM): 96% | cell viability ([5]; 100 nM): 107% | cell viability ([5]; 1000 nM): 92.7% | cell viability ([5]; 10000 nM): 99% | cell viability ([6]; 1 nM): 90% | cell viability ([6]; 10 nM): 92.8% | cell viability ([6]; 100 nM): 108% | cell viability ([6]; 1000 nM): 93.7% | cell viability ([6]; 10000 nM): 97.7% | cell viability ([7]; 1 nM): 102% | cell viability ([7]; 10 nM): 95.1% | cell viability ([7]; 100 nM): 113% | cell viability ([7]; 1000 nM): 103% | cell viability ([7]; 10000 nM): 99% | cell viability ([8]; 1 nM): 98.8% | cell viability ([8]; 10 nM): 96.1% | cell viability ([8]; 100 nM): 117% | cell viability ([8]; 1000 nM): 86.3% | cell viability ([8]; 10000 nM): 98.3% | cell viability ([9]; 1 nM): 101% | cell viability ([9]; 10 nM): 98.4% | cell viability ([9]; 100 nM): 101% | cell viability ([9]; 1000 nM): 85.5% | cell viability ([9]; 10000 nM): 99.9% | cell viability ([10]; 1 nM): 98.9% | cell viability ([10]; 10 nM): 90% | cell viability ([10]; 100 nM): 119% | cell viability ([10]; 1000 nM): 87.1% | cell viability ([10]; 10000 nM): 94.6% | cell viability ([11]; 1 nM): 99.8% | cell viability ([11]; 10 nM): 102% | cell viability ([11]; 100 nM): 102% | cell viability ([11]; 1000 nM): 84.5% | cell viability ([11]; 10000 nM): 97.7% | cell viability ([12]; 1 nM): 102% | cell viability ([12]; 10 nM): 86.8% | cell viability ([12]; 100 nM): 97.8% | cell viability ([12]; 1000 nM): 90.2% | cell viability ([12]; 10000 nM): 90.7% | cell viability ([13]; 1 nM): 101% | cell viability ([13]; 10 nM): 117% | cell viability ([13]; 100 nM): 113% | cell viability ([13]; 1000 nM): 81% | cell viability ([13]; 10000 nM): 111% | cell viability ([14]; 1 nM): 88.3% | cell viability ([14]; 10 nM): 77.6% | cell viability ([14]; 100 nM): 100% | cell viability ([14]; 1000 nM): 25.6% | cell viability ([14]; 10000 nM): 95.9% | IC50 (cell viability) [15]: > 10 µM | IC50 (cell viability) [16]: > 10 µM | IC50 (cell viability) [17]: > 10 µM | IC50 (cell viability) [18]: > 10 µM | IC50 (cell viability) [19]: > 10 µM | IC50 (cell viability) [20]: > 10 µM | IC50 (cell viability) [21]: > 10 µM | IC50 (cell viability) [22]: > 10 µM | IC50 (cell viability) [23]: > 10 µM | IC50 (cell viability) [24]: > 10 µM | IC50 (cell viability) [25]: > 10 µM | IC50 (cell viability) [26]: > 10 µM | IC50 (cell viability) [27]: > 10 µM | IC50 (cell viability) [28]: > 10 µM | IC50 (cell viability) [29]: > 10 µM | area under dose-response curve ([30]; co-treatment: AZD3965 100 nM): < 0.0301 | area under dose-response curve ([30]; co-treatment: DMSO vehicle): < 0.0301 | area under dose-response curve [30, 31]: < 0.0301 | area under dose-response curve [30, 32]: < 0.0301
